{
  "source": "paper PMC11881561",
  "about": "(Antimicrobial Agents and Chemotherapy, 2025)",
  "key": {"[1]": {"test_system": "engineered E. coli strain expressing KPC-3^V240G", "experiment": "microbe, parasite or virus in culture", "format": "cell-based", "conditions": "Escherichia coli, BLIs at fixed 4 μg/mL"}, "[2]": {"test_system": "engineered E. coli strain expressing KPC-2^D179Y/T243M", "experiment": "microbe, parasite or virus in culture", "format": "cell-based", "conditions": "Escherichia coli, BLIs at fixed 4 μg/mL"}, "[3]": {"test_system": "engineered E. coli strain expressing KPC-3^D179Y", "experiment": "microbe, parasite or virus in culture", "format": "cell-based", "conditions": "Escherichia coli, BLIs at fixed 4 μg/mL"}, "[4]": {"test_system": "engineered E. coli strain expressing KPC-2^V240G", "experiment": "microbe, parasite or virus in culture", "format": "cell-based", "conditions": "Escherichia coli, BLIs at fixed 4 μg/mL"}, "[5]": {"test_system": "E. coli strains expressing KPC-2^D179Y or KPC-2^D179Y/T243M", "experiment": "microbe, parasite or virus in culture", "format": "cell-based"}, "[6]": {"test_system": "E. coli control strain lacking a β-lactamase", "experiment": "microbe, parasite or virus in culture", "format": "cell-based", "conditions": "Escherichia coli, no KPC expressed, BLIs at fixed 4 μg/mL"}, "[7]": {"test_system": "engineered E. coli strain expressing KPC-3^D179Y/T243M", "experiment": "microbe, parasite or virus in culture", "format": "cell-based", "conditions": "Escherichia coli, BLIs at fixed 4 μg/mL"}, "[8]": {"test_system": "engineered E. coli strain expressing KPC-3 wt", "experiment": "microbe, parasite or virus in culture", "format": "cell-based", "conditions": "Escherichia coli; KPC-3 wt strain; BLIs at fixed 4 μg/mL"}, "[9]": {"test_system": "engineered E. coli strain expressing KPC-2 wt", "experiment": "microbe, parasite or virus in culture", "format": "cell-based", "conditions": "Escherichia coli; KPC-2 wt strain; BLIs at fixed 4 μg/mL"}, "[10]": {"test_system": "engineered E. coli strain expressing KPC-2^D179Y", "experiment": "microbe, parasite or virus in culture", "format": "cell-based", "conditions": "Escherichia coli, BLIs at fixed 4 μg/mL"}, "KPC-2^V240G": {"molecular_target": "KPC-2^V240G (Klebsiella pneumoniae, UniProt Q9F663, V239G)", "sequence (Q9F663 25-293 V239G)": "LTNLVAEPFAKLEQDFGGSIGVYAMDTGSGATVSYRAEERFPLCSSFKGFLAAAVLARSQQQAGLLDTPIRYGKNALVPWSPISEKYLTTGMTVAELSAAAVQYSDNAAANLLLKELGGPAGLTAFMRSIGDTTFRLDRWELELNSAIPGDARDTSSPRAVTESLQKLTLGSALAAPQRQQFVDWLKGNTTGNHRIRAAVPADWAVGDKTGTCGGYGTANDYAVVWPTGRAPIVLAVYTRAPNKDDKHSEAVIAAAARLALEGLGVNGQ", "experiment": "Inhibition kinetics (CENTA hydrolysis, jump dilution), KPC-2 V240G", "format": "biochemical", "method": "(§1) Measurements to determine kinetic parameters for hydrolysis, and kinetic parameters for inhibition were performed at ambient temperature in PBS (pH 7.4) containing 0.1 mg/mL bovine serum albumin, using a PowerWaveXS plate reader (BioTek).\n(§2) Second-order rate constants (k2/K) denoting the inactivation efficiency of BLIs were determined by continuously measuring CENTA (100 µM) hydrolysis ([28]) in the presence of various concentrations of BLI. Progress curves were fit to equation 3 using GraphPad Prism, where Ai and A0 are the measured and basal absorbance, vi and vs are initial and final velocity, and t is time in seconds. k2/K was derived with equation 4. Koff was determined by the jump dilution method ([24]). Kd was estimated from the ratio between koff and k2/K.\n(§3) (3) Ai=A0+vst(vi-vs)[1-e^-(kobs)t/kobs]\n(§4) (4) kobs=k-2+(k2/KI)[I]/1+[S]/KM"}, "KPC-3^V240G": {"molecular_target": "KPC-3^V240G (Klebsiella pneumoniae, UniProt Q9F663, H272Y/V239G)", "sequence (Q9F663 27-293 V239G/H272Y)": "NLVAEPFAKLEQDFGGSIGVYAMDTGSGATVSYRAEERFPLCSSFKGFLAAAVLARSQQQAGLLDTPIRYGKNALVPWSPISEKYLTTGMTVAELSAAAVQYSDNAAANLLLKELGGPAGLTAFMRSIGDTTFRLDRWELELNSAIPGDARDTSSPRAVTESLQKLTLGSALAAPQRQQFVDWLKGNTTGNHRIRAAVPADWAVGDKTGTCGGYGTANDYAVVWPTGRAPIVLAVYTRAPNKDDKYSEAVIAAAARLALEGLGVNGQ", "experiment": "Inhibition kinetics (CENTA hydrolysis, jump dilution), KPC-3 V240G", "format": "biochemical", "method": "as §1, §2, §3, §4"}, "KPC-2 WT [11]": {"molecular_target": "T1, KPC-2 WT (Klebsiella pneumoniae, UniProt Q9F663)", "T1 sequence (Q9F663 25-293 limits assumed)": "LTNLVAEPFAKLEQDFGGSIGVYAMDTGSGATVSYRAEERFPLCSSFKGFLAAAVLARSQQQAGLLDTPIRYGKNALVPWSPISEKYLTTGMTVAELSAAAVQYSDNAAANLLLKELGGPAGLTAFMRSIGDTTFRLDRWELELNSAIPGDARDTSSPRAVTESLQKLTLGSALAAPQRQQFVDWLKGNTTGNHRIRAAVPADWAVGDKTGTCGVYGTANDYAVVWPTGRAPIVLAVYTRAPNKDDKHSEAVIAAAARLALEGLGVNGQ", "format": "biochemical", "method": "as §1, §2, §3, §4"}, "KPC-2^D179Y/T243M": {"molecular_target": "KPC-2^D179Y/T243M (Klebsiella pneumoniae, UniProt Q9F663, D178Y/T242M)", "sequence (Q9F663 25-293 D178Y/T242M)": "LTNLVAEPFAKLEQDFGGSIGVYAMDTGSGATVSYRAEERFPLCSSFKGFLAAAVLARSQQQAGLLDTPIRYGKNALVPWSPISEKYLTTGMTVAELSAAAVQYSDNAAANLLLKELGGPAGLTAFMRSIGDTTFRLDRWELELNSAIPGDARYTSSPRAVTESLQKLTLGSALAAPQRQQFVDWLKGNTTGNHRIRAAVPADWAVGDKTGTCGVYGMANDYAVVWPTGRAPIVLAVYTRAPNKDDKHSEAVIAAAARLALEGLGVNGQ", "experiment": "Inhibition kinetics (CENTA hydrolysis, jump dilution), KPC-2 D179Y/T243M", "format": "biochemical", "conditions": "KPC-2 D179Y/T243M", "method": "as §1, §2, §3, §4"}, "KPC-2^D179Y": {"molecular_target": "KPC-2^D179Y (Klebsiella pneumoniae, UniProt Q9F663, D178Y)", "sequence (Q9F663 25-293 D178Y)": "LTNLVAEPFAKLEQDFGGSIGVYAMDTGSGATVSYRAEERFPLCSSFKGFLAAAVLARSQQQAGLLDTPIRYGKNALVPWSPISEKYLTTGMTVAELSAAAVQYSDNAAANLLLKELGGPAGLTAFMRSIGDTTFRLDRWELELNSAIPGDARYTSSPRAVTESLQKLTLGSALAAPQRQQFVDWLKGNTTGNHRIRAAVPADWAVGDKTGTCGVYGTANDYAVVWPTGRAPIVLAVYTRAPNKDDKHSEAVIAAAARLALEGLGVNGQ", "experiment": "Inhibition kinetics (CENTA hydrolysis, jump dilution), KPC-2 D179Y", "format": "biochemical", "conditions": "KPC-2 D179Y", "method": "as §1, §2, §3, §4"}, "KPC-3^D179Y/T243M": {"molecular_target": "KPC-3^D179Y/T243M (Klebsiella pneumoniae, UniProt Q9F663, D178Y/H272Y/T242M)", "sequence (Q9F663 27-293 D178Y/T242M/H272Y)": "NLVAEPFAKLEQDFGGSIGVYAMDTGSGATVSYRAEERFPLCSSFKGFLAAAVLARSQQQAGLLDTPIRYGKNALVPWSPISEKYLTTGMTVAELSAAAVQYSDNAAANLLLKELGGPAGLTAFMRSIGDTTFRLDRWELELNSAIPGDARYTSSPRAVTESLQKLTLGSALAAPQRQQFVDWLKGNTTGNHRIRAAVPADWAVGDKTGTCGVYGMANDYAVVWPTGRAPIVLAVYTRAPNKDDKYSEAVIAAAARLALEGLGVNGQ", "experiment": "Inhibition kinetics (CENTA hydrolysis, jump dilution), KPC-3 D179Y/T243M", "format": "biochemical", "method": "as §1, §2, §3, §4"}, "KPC-3^D179Y": {"molecular_target": "KPC-3^D179Y (Klebsiella pneumoniae, UniProt Q9F663, D178Y/H272Y)", "sequence (Q9F663 27-293 D178Y/H272Y)": "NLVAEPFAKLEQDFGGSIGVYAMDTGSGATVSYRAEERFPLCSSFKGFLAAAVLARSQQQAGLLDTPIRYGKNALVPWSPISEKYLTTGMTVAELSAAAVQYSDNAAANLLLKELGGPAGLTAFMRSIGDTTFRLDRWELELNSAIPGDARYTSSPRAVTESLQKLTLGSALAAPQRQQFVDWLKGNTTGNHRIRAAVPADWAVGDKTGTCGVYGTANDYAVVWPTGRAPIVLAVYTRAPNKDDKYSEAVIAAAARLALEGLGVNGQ", "experiment": "Inhibition kinetics (CENTA hydrolysis, jump dilution), KPC-3 D179Y", "format": "biochemical", "method": "as §1, §2, §3, §4"}, "KPC-3 WT": {"molecular_target": "KPC-3 WT (Klebsiella pneumoniae, UniProt Q9F663, H272Y)", "sequence (Q9F663 27-293 H272Y)": "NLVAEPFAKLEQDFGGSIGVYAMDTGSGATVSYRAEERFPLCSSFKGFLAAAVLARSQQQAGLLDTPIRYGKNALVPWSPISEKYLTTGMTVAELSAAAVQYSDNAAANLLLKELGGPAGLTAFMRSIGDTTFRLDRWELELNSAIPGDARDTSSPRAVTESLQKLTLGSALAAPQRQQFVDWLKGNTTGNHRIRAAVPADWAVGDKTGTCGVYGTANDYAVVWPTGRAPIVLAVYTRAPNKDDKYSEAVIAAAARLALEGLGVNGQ", "experiment": "Inhibition kinetics (CENTA hydrolysis, jump dilution), KPC-3 wt", "format": "biochemical", "method": "as §1, §2, §3, §4"}, "KPC-2 WT [12]": {"molecular_target": "T1, KPC-2 WT", "conditions": "previously reported; cited from earlier work"}, "[13]": {"test_system": "KPC-3^D179Y and KPC-3^D179Y/T243M", "experiment": "Inhibition kinetics, summary for KPC-3 D179Y variants", "format": "biochemical, Klebsiella pneumoniae", "conditions": "range over TAN, LED, AVI and both KPC-3 D179Y variants", "method": "as §1, §2, §3, §4"}, "[14]": {"conditions": "estimated from ratio koff / k2/K"}, "[15]": {"conditions": "pH 7.4, inactivation efficiency, read-out: k2/K"}},
  "note": "pKd: −log10 of the molar value.",
  "data": [
    {"smiles": "C[C@@H](O)[C@H]1C(=O)N2C(C(=O)O)=C(S[C@@H]3CN[C@H](C(=O)N(C)C)C3)[C@H](C)[C@H]12", "note": "[MEM, meropenem]", "values": [
      {"measurement": "MIC", "setting": "[1]", "value": 16, "unit": "µg/mL"},
      {"measurement": "MIC", "setting": "[2]", "value": 0.25, "unit": "µg/mL"},
      {"measurement": "MIC", "setting": "[3]", "value": 0.12, "unit": "µg/mL"},
      {"measurement": "MIC", "setting": "[4]", "value": 8, "unit": "µg/mL"},
      {"measurement": "MIC increase relative to the control strain", "setting": "[5]", "value": "eightfold"},
      {"measurement": "MIC", "setting": "[6]", "value": 0.03, "unit": "µg/mL"},
      {"measurement": "MIC", "setting": "[7]", "value": 0.12, "unit": "µg/mL"},
      {"measurement": "MIC", "setting": "[8]", "value": 16, "unit": "µg/mL"},
      {"measurement": "MIC", "setting": "[9]", "value": 32, "unit": "µg/mL"},
      {"measurement": "MIC", "setting": "[10]", "value": 0.25, "unit": "µg/mL"}
    ]},
    {"smiles": "NC(=O)[C@@H]1CC[C@@H]2CN1C(=O)N2OS(=O)(=O)O", "note": "[AVI, avibactam]", "values": [
      {"measurement": "t1/2", "setting": "KPC-2^V240G", "value": "21.5 ± 0.06", "unit": "min"},
      {"measurement": "t1/2", "setting": "KPC-3^V240G", "value": "10.7 ± 0.1", "unit": "min"},
      {"measurement": "t1/2", "setting": "KPC-2 WT [11]", "value": "21.4 ± 0.07", "unit": "min"},
      {"measurement": "t1/2", "setting": "KPC-2^D179Y/T243M", "value": "198 ± 8", "unit": "min"},
      {"measurement": "t1/2", "setting": "KPC-2^D179Y", "value": "205 ± 10", "unit": "min"},
      {"measurement": "t1/2", "setting": "KPC-3^D179Y/T243M", "value": "22.5 ± 3.5", "unit": "min"},
      {"measurement": "t1/2", "setting": "KPC-3^D179Y", "value": "12.8 ± 0.9", "unit": "min"},
      {"measurement": "t1/2", "setting": "KPC-3 WT", "value": "10.1 ± 0.1", "unit": "min"}
    ]},
    {"smiles": "CCC(=O)N[C@H]1Cc2cccc(C(=O)O)c2OB1O", "note": "[LED, ledaborbactam]", "values": [
      {"measurement": "pKd", "setting": "KPC-2 WT [12]", "value": 8.05},
      {"measurement": "k2/K", "setting": "KPC-2 WT [12]", "value": "(2.9 ± 0.07) × 10^4 M^−1⋅s^−1"},
      {"measurement": "koff", "setting": "KPC-2 WT [12]", "value": "(2.5 ± 0.1) × 10^−4 s^−1"},
      {"measurement": "t1/2", "setting": "KPC-2^V240G", "value": "32 ± 1", "unit": "min"},
      {"measurement": "pKd", "setting": "KPC-2^V240G; [14]", "value": 7.92},
      {"measurement": "koff", "setting": "KPC-2^V240G; jump dilution, read-out: koff", "value": 0.00037, "unit": "s⁻¹"},
      {"measurement": "kinact/KI", "setting": "KPC-2^V240G; [15]", "value": 31000, "unit": "M⁻¹ s⁻¹"},
      {"measurement": "t1/2", "setting": "KPC-3^V240G", "value": "19.3 ± 0.4", "unit": "min"},
      {"measurement": "pKd", "setting": "KPC-3^V240G; [14]", "value": 7.34},
      {"measurement": "koff", "setting": "KPC-3^V240G; jump dilution, read-out: koff", "value": 0.0006, "unit": "s⁻¹"},
      {"measurement": "kinact/KI", "setting": "KPC-3^V240G; [15]", "value": 13000, "unit": "M⁻¹ s⁻¹"},
      {"measurement": "t1/2", "setting": "KPC-2^D179Y/T243M", "value": "18.6 ± 2.7", "unit": "min"},
      {"measurement": "pKd", "setting": "KPC-2^D179Y/T243M; [14]", "value": 5.82},
      {"measurement": "koff", "setting": "KPC-2^D179Y/T243M; jump dilution, read-out: koff", "value": 0.00063, "unit": "s⁻¹"},
      {"measurement": "kinact/KI", "setting": "KPC-2^D179Y/T243M; [15]", "value": 430, "unit": "M⁻¹ s⁻¹"},
      {"measurement": "t1/2", "setting": "KPC-2^D179Y", "value": "16.7 ± 0.5", "unit": "min"},
      {"measurement": "pKd", "setting": "KPC-2^D179Y; [14]", "value": 5.89},
      {"measurement": "koff", "setting": "KPC-2^D179Y; jump dilution, read-out: koff", "value": 0.00069, "unit": "s⁻¹"},
      {"measurement": "kinact/KI", "setting": "KPC-2^D179Y; [15]", "value": 520, "unit": "M⁻¹ s⁻¹"},
      {"measurement": "t1/2", "setting": "KPC-3^D179Y/T243M", "value": "18.1 ± 2.2", "unit": "min"},
      {"measurement": "pKd", "setting": "KPC-3^D179Y/T243M; [14]", "value": 6.21},
      {"measurement": "koff", "setting": "KPC-3^D179Y/T243M; jump dilution, read-out: koff", "value": 0.00065, "unit": "s⁻¹"},
      {"measurement": "kinact/KI", "setting": "KPC-3^D179Y/T243M; [15]", "value": 1000, "unit": "M⁻¹ s⁻¹"},
      {"measurement": "t1/2", "setting": "KPC-3^D179Y", "value": "17.2 ± 0.3", "unit": "min"},
      {"measurement": "pKd", "setting": "KPC-3^D179Y; [14]", "value": 5.90},
      {"measurement": "koff", "setting": "KPC-3^D179Y; jump dilution, read-out: koff", "value": 0.00067, "unit": "s⁻¹"},
      {"measurement": "kinact/KI", "setting": "KPC-3^D179Y; [15]", "value": 540, "unit": "M⁻¹ s⁻¹"},
      {"measurement": "t1/2", "setting": "KPC-3 WT", "value": "19.6 ± 0.2", "unit": "min"},
      {"measurement": "pKd", "setting": "KPC-3 WT; [14]", "value": 6.66},
      {"measurement": "koff", "setting": "KPC-3 WT; jump dilution, read-out: koff", "value": 0.00059, "unit": "s⁻¹"},
      {"measurement": "kinact/KI", "setting": "KPC-3 WT; [15]", "value": 2700, "unit": "M⁻¹ s⁻¹"},
      {"measurement": "reduced inactivation efficiencies relative to KPC-3^wt", "setting": "[13]", "value": "2–14 fold"}
    ]}
  ]
}
